Experimental findings from US20110053897A1 (IRM LLC, priority 2009, published 2011) are described below.

pIC50: −log10 of the molar value.

One assay addresses T1, Syk kinase (Homo sapiens, UniProt P43405).
T1 construct: purchased
In words: Syk kinase inhibition, Caliper LabChip off-chip mobility-shift kinase assay. The settings on record: Caliper LabChip assay; read-out: Syk Enzyme IC50. The assay is classed as biochemical. The method in brief:
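Purified Syk pre-incubated 15 min with compound in 100 mM HEPES pH 7.5, 1 mM DTT, 10 mM MgCl2 or MnCl2, 0.002% Brij-35, then 1.5 μM fluorescein peptide and ATP at apparent KM added; 1–1.5 h at room temperature, 4% DMSO, EDTA stop. Microfluidic mobility-shift product/substrate conversion gave % inhibition; IC50 from 12-point series (10–0.00003 μM) by 4-parameter fit.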
For the molecule `CC(C)(C)Nc1nc(Nc2cc(C(F)(F)CO)ccn2)cc2ccn(CCO)c(=O)c12` [compound 871], the negative logarithm of the IC50 (pIC50) is greater than 8.90.
For the molecule `CCn1ccc2cc(Nc3cnccn3)nc(N)c2c1=O` [compound 802], the negative-log IC50 (pIC50) is 5.93.
In the case of `CCn1ccc2cc(Nc3cc(C)ccn3)nc(N[C@@H]3CCC[C@@H]3CO)c2c1=O` [compound 941], the pIC50 is 6.65.
Take `C[C@@H](CO)Nc1nc(Nc2cnccn2)cc2ccn(CCN3CCOCC3)c(=O)c12` [compound 996]: the negative-log IC50 (pIC50) was 6.80.
On to `CC(C)(C)Nc1nc(-c2cnc(N)nc2)cc2ccn(CC3CCCO3)c(=O)c12` (centres unmarked) [compound 918], for which the negative-log IC50 (pIC50) was 7.46.
On the same count and under the same terms, the result for `CC(O)Cn1ccc2cc(-c3cnc(N)nc3)nc(NC(C)(C)C)c2c1=O` (centres unmarked) [compound 927] reads 7.85; that for `CC(C)(C)Nc1nc(Nc2nccc(O)n2)cc2ccn(CCO)c(=O)c12` [compound 826], 7.60; that for `CC(C)(CO)Nc1nc(-c2cnc(N)nc2)cc2ccn(CCO)c(=O)c12` [compound 902], 7.24.
As for `CCn1ccc2cc(Nc3cnccn3)nc(N[C@H](CO)C(C)(C)C)c2c1=O` [compound 807], the pIC50 was 6.67.
As to `CC(C)(C)Nc1nc(Nc2cc(C(=O)N3CCCC(CO)C3)ccn2)cc2ccn(CCO)c(=O)c12` (centres unmarked) [compound 688], the pIC50 was 6.06.
Still for that read-out and setting: with `COCCNC(=O)c1ccc(Nc2nc(Nc3cc(C)ccn3)cc3ccn(C)c(=O)c23)cc1` [compound 652] the figure was 6.18; with `CN1CCC(Oc2cc(Nc3cc4ccn(CCO)c(=O)c4c(NC(C)(C)C)n3)ncn2)CC1` [compound 648, 8-(tert-butylamino)-2-(2-hydroxyethyl)-6-(6-(1-methylpiperidin-4-yloxy)pyrimidin-4-ylamino)-2,7-naphthyridin-1(2H)-one], 8.22; with `NC(=O)Cn1ccc2cc(-c3cnc(N)nc3)nc(NC3CCOCC3)c2c1=O` [compound 750], 7.62.
With `Nc1ncc(-c2cc3ccn(CC4(CO)COC4)c(=O)c3c(NC3CCCC3)n2)cn1` [compound 761], the pIC50 is 7.18.
The same measure, in the same setting: the result for `CC(C)(C)Nc1nc(Nc2cnccn2)cc2c(Cl)cn(CCO)c(=O)c12` [compound 823] reads 6.17.
Consider `CC(C)n1ccc2cc(Nc3cnccn3)nc(NC(C)(C)C)c2c1=O` [compound 822], for which the pIC50 was 6.78.
Regarding `CCn1ccc2cc(-c3cnc(N)nc3)nc(N[C@H]3CC[C@H](O)CC3)c2c1=O` [compound 1032], the pIC50 was 7.34.
For the molecule `CC(C)n1ccc2cc(Nc3cnccn3)nc(N[C@H]3CCC[C@H]3O)c2c1=O` [compound 980], the negative-log IC50 (pIC50) was 7.44.
On to `C=Cc1cc(Nc2cc3ccn(CCO)c(=O)c3c(NC(C)(C)C)n2)ncn1` [compound 618, 8-(tert-butylamino)-2-(2-hydroxyethyl)-6-(6-vinylpyrimidin-4-ylamino)-2,7-naphthyridin-1(2H)-one], for which the pIC50 is 6.92.
Still for that read-out and setting: the result for `CC(C)(C)Nc1nc(-c2cnc(N)nc2)cc2ccn(C(C)(C)C(N)=O)c(=O)c12` [compound 673] reads 7.24; that for `CC(C)(C)Nc1nc(Nc2cc(CN3CC(O)C3)c(F)cn2)cc2ccn(CCO)c(=O)c12` [compound 611], 6.60.
On to `COC/C=C/c1cc(Nc2cc3ccn(CCO)c(=O)c3c(NC(C)(C)C)n2)ncn1` [compound 621], for which the negative logarithm of the IC50 (pIC50) is 7.03.
Turning to `COCC(COC)n1ccc2cc(-c3cnc(N)nc3)nc(NC(C)(C)C)c2c1=O` [compound 936], the negative logarithm of the IC50 (pIC50) is 7.82.
On to `CC(C)(C)Nc1nc(Nc2cc(C(F)CO)ccn2)cc2ccn(CCO)c(=O)c12` (centres unmarked) [compound 872], for which the negative logarithm of the IC50 (pIC50) was greater than 8.93.
Same read-out and setting: with `CC(O)c1cc(Nc2cc3ccn(CCO)c(=O)c3c(NC(C)(C)C)n2)ncn1` (centres unmarked) [compound 727] the figure was 7.52; with `CC(C)(C)Nc1nc(Nc2cnccn2)cc2ccn(CC(O)C(F)(F)F)c(=O)c12` (centres unmarked) [compound 1011], 6.34.
Still for that read-out and setting: with `CC(O)c1ccnc(Nc2cc3ccn(CCO)c(=O)c3c(NC(C)(C)C)n2)n1` (centres unmarked) [compound 715] the figure was 6.17; with `CC(C)n1ccc2cc(-c3cnc(N)nc3)nc(N[C@H]3CC[C@@H](CO)C3)c2c1=O` [compound 1030], 7.32; with `CCn1ccc2cc(Nc3cc(C)ccn3)nc(Nc3ccc(C(=O)NCCO)cc3)c2c1=O` [compound 834], 6.90.
For `CCn1ccc2cc(Nc3cnccn3)nc(NCC(F)(F)F)c2c1=O` [compound 1044], the negative logarithm of the IC50 (pIC50) is 6.96.
Consider `CC(C)(C)Nc1nc(Nc2cc(C(N)=O)ccn2)cc2ccn(CCO)c(=O)c12` [compound 681], for which the negative logarithm of the IC50 (pIC50) is 7.09.
Regarding `CC(C)(C)Nc1nc(Nc2cnccn2)cc2ccn(C[C@H](O)CO)c(=O)c12` [compound 669], the pIC50 was 8.22.
On to `CC(C)(C)Nc1nc(-c2cnc(N)nc2)cc2ccn(C3COC3)c(=O)c12` [compound 921], for which the negative logarithm of the IC50 (pIC50) is 7.68.
Turning to `Cc1ccnc(Nc2cc3ccn(C(C)C)c(=O)c3c(NC(C)(C)CO)n2)c1` [compound 819], the pIC50 is 7.21.

The same assay, now with this note: read-out: Syk Enzyme IC50.
In the case of `COc1cncc(-c2cc3cc[nH]c(=O)c3c(Nc3ccc(CCCN4CCOCC4)cc3)n2)n1` [compound 40], the negative-log IC50 (pIC50) was 7.02.
Still for that read-out and setting: the result for `Cc1cc(Nc2nc(Nc3ccc(Cl)cn3)cc3cc[nH]c(=O)c23)ccc1C1CCN(C2CC2)CC1` [compound 250] reads 5.68; that for `CCc1ccnc(Nc2cc3cc[nH]c(=O)c3c(NC3CC3)n2)c1` [compound 521], 6.88.
As to `COc1ccc(Nc2nc(Nc3cc(C)ccn3)cc3ccn(C)c(=O)c23)cc1` [compound 364], the pIC50 was 6.64.
Consider `C[C@@H](O)CNc1nc(-c2cnc(N)nc2)cc2cc[nH]c(=O)c12` [compound 452], for which the pIC50 was 6.85.
`CCN1CCN(CCc2ccc(Nc3nc(-c4cncc(OC)n4)cc4cc[nH]c(=O)c34)cc2)CC1C` (centres unmarked) [compound 33]: the negative logarithm of the IC50 (pIC50) was 7.47.
On to `CCn1ccc2cc(Nc3cc(C)ccn3)nc(NC(C)(C)C)c2c1=O` [compound 525], for which the pIC50 was 6.62.
As to `CCN1CCN(CCc2ccc(Nc3nc(Nc4ccc(C)cn4)cc4cc[nH]c(=O)c34)cc2)CC1` [compound 563], the pIC50 was 6.37.
On to `Cc1ccnc(Nc2cc3cc[nH]c(=O)c3c(N3CCCC3)n2)c1` [compound 269], for which the pIC50 was 6.26.
Same read-out and setting: with `[2H]C([2H])([2H])n1ccc2cc(Nc3cc(Cl)ccn3)nc(NC(C)(C)C)c2c1=O` [compound 542] the figure was 6.08; with `C[C@@H]1CN(c2ccc(Nc3nc(-c4cncnc4)cc4cc[nH]c(=O)c34)cn2)C[C@H](C)O1` [compound 18], 6.61; with `COC(=O)CN1CCC(c2ccc(Nc3nc(-c4cncc(OC)n4)cc4cc[nH]c(=O)c34)cc2C)CC1` [compound 157], 7.00.
Take `CNS(=O)(=O)c1ccc(Nc2nc(Nc3cc(C)ccn3)cc3ccn(C)c(=O)c23)cc1` [compound 349]: the negative-log IC50 (pIC50) is 6.38.
Regarding `Cn1ccc2cc(Nc3cc(Cl)ccn3)nc(N[C@H]3CC[C@H](O)CC3)c2c1=O` [compound 385], the pIC50 is 7.55.
With `Cc1ccnc(Nc2cc3cc[nH]c(=O)c3c(NC(C)CC(C)C)n2)c1` (centres unmarked) [compound 270], the negative-log IC50 (pIC50) is 5.16.
On to `CCNC(=O)c1ccc(Nc2nc(Nc3cnccn3)cc3ccn(C)c(=O)c23)cc1` [compound 381], for which the pIC50 is 6.22.
Regarding `CCC(C)(C)Nc1nc(-c2cnc(N)nc2)cc2cc[nH]c(=O)c12` [compound 454], the pIC50 was 6.55.
For the molecule `CCn1ccc2cc(Nc3cc(C)ccn3)nc(N[C@H]3CCC[C@@H]3O)c2c1=O` [compound 422], the negative-log IC50 (pIC50) was 7.06.
As to `C[C@@H](CO)Nc1nc(Nc2cnccn2)cc2ccn(C)c(=O)c12` [compound 327], the pIC50 was 6.92.
The same measure, in the same setting: with `Cc1ccnc(Nc2cc3ccn(CCO)c(=O)c3c(N[C@H]3CCC[C@H]3O)n2)c1` (racemic) [compound 368] the figure was 7.80; with `O=c1[nH]ccc2cc(Nc3ccccn3)nc(NC3CCOCC3)c12` [compound 297], 6.47.
On to `Cc1ccnc(Nc2cc3cc[nH]c(=O)c3c(Nc3ccc(C4CCN(C5CC5)CC4)c(C)c3)n2)c1` [compound 252], for which the negative logarithm of the IC50 (pIC50) is 7.49.
Consider `CCN1CCC[C@H]1CNc1nc(Nc2cc(C)ccn2)cc2cc[nH]c(=O)c12` [compound 590], for which the pIC50 was 5.46.
Take `Cc1ccc(Nc2cc3cc[nH]c(=O)c3c(Nc3ccc(N4CCOCC4)cc3)n2)nc1` [compound 545]: the negative-log IC50 (pIC50) was 5.41.
`CCn1ccc2cc(Nc3cc(C)ccn3)nc(NC[C@H]3CC[C@H](O)C3)c2c1=O` [compound 410]: the pIC50 is 6.92.
As to `CCOCC(=O)N1CCC(c2ccc(Nc3nc(-c4cncc(OC)n4)cc4cc[nH]c(=O)c34)cc2C)CC1` [compound 50], the pIC50 was 7.12.
Turning to `COc1cncc(-c2cc3cc[nH]c(=O)c3c(Nc3ccc(C4CN(CCO)C4)cc3)n2)n1` [compound 147], the negative-log IC50 (pIC50) is 8.40.
As to `CCN1CCN(c2n[nH]c3cc(Nc4nc(-c5cncc(OC)n5)cc5cc[nH]c(=O)c45)ccc23)CC1` [compound 209], the pIC50 is 7.96.
Regarding `COCCCN1CCC(c2ccc(Nc3nc(-c4cnc(OC)nc4)cc4cc[nH]c(=O)c34)cc2F)CC1` [compound 196], the pIC50 is 7.23.
Consider `CCN1CCN(c2n[nH]c3cc(Nc4nc(-c5cncnc5)cc5cc[nH]c(=O)c45)ccc23)CC1` [compound 199], for which the negative logarithm of the IC50 (pIC50) is 7.70.
As to `Cc1cc(-c2cc3cc[nH]c(=O)c3c(Nc3ccc(C4CCN(CCC#N)CC4)c(C)c3)n2)nc(N)n1` [compound 70], the pIC50 is 6.46.
On the same count and under the same terms, the result for `CCN1CCN(CCc2ccc(Nc3nc(-c4cnn(CC(C)C)c4)cc4cc[nH]c(=O)c34)cc2)CC1` [compound 444] reads 6.91.
Turning to `O=c1[nH]ccc2cc(-c3cncnc3)nc(Nc3ccc([C@H]4CC[C@H](N5CCOCC5)CC4)cc3)c12` [compound 111], the pIC50 is 6.72.
Take `CCn1ccc2cc(Nc3cc(C)ccn3)nc(N[C@H]3CC[C@@H](O)CC3)c2c1=O` [compound 362]: the negative-log IC50 (pIC50) was 7.74.
